In patent publication US20110124523A1, “High Throughput Method for Detecting Apoptosis of Embryonic Stages of Metazoan Helminthic Parasites” (INSTITUTE OF LIFE SCIENCES, priority 2009, published 2011):
Where “and” joins values, the source holds several entries; their conditions need not be identical. Equal entries are not always repeated.

Experiments:
[1] = tested on: embryonic stages of S. digitata; assay: Intra cellular expression of CED-3 protein, flow cytometry; format: cell-based, Setaria digitata; conditions: 24 hr
Description: Adult female filarial worms Setaria digitata were collected from the peritoneum of cattle, slaughtered at a nearby abattoir in sterile Hanks Balanced Salt Solution (HBSS) medium (Sigma H 2387-1L) and transported to the laboratory in a sterile container. The medium containing 1% glucose (Sigma G 7528), Penicillin 100 units/ml, Streptomycin 100 μg/ml (Sigma P 4333). And Amphotericin-B 0.25 μg/ml (Sigma A 2942) was buffered with NaHCO3 (Sigma S 5761). About 5 to 7 worms were taken in a petridish, washed three times in medium, dissected into small pieces in 10 ml of medium under sterile conditions and incubated at 37° C. for 30 minutes to allow the release of embryonic stages (eggs and microfilariae) into the medium. The embryonic stages were harvested into sterile 15 ml. centrifuge tubes and washed three times by centrifuging at 300 g for 10 minutes each with medium and the final pellet was suspended in 1 ml. of RPMI-1640 medium (Sigma R 8005) supplemented with 10% FBS (Sigma F 2442) The number of embryonic stages of S. digitata in the above preparation were counted using light microscope, and the suspension was taken in RPMI-1640 medium containing 10% FBS at 1×10^5 embryonic stages/ml. One ml. each was dispensed into individual wells of a 24 well tissue culture plate. One set of wells was taken as untreated control containing only medium with 10% FBS. […] Motility of the Mf was scored under an inverted microscope. After appropriate treatment and incubation, each set of the cultured embryonic stages of S. digitata were harvested from the 24 well tissue culture plate separately in 15 ml. sterile centrifuge tubes, washed with PBS twice and stained as per requirement following manufacturer's instructions as described below. This was followed by two times washing with PBS and final suspension of the stained embryonic stages was taken in 0.5 ml of sheath fluid (BD Biosciences 342003) before their acquisition in the flow cytometer (BD FACS Calibur, Becten and Dickinson, USA). Analysis was performed on 10,000-acquired events depicted as Dot Plots and Histogram Plots using Cellquest Pro soft ware. All plots were representative of at least 3 experiments. The distinctly clustered populations obtained consistently in the Dot plots for the intra uterine embryonic stages of S. digitata (FIG. 1 a) were gated for Mfs (R-1) and eggs (R-2 and R-3) and analyzed for different assays for apoptosis as described below. After in vitro culture for 24 hours with apoptosis inducing reagents the embryonic stages were harvested in 15 ml, sterile centrifuge tubes and fixed for 60 minutes at 0° C. in 1% paraformaldehyde (Sigma P 6148) in PBS. The suspension was washed first with PBS and then with 1× permeabilisation buffer (eBioscience 00-8333-56) and finally resuspended in 100 μl of 1× permeabilisation buffer at 1×10^5 embryonic stages per ml. The intra cellular expression of CED-3 was scored by incubation of the fixed and permeabilised embryonic stages with primary goat antibodies—anti CED-3 (Santacruz sc-9192) followed by Probing with PE conjugated secondary anti goat IgG-PE (Santacruz sc-3747) antibodies. Incubation of both primary and secondary antibodies (both 1/100 diluted) was done successively in 1× permeabilisation buffer (e Bioscience 00-8333-56) for 1 hr and 45 minutes respectively. The suspension of stained embryonic stages was then washed with PBS twice and finally reading was taken by flow cytometry.

[2] = tested on: embryonic stages of S. digitata; assay: Mitochondrial depolarization, mitoscreen JC-1 staining; format: cell-based, Setaria digitata; conditions: for GMI (Geometric Mean Intensity) of Fluorescence, Mitoscreen-jc-1 staining (Mitochondrial Depolarisation assay): 24 hr, depolarisation = reduction in GMI; for induction of mitochondrial depolarization (result in words): Mfs and eggs, mitoscreen JC-1 staining
Description: Adult female filarial worms Setaria digitata were collected from the peritoneum of cattle, slaughtered at a nearby abattoir in sterile Hanks Balanced Salt Solution (HBSS) medium (Sigma H 2387-1L) and transported to the laboratory in a sterile container. The medium containing 1% glucose (Sigma G 7528), Penicillin 100 units/ml, Streptomycin 100 μg/ml (Sigma P 4333). And Amphotericin-B 0.25 μg/ml (Sigma A 2942) was buffered with NaHCO3 (Sigma S 5761). About 5 to 7 worms were taken in a petridish, washed three times in medium, dissected into small pieces in 10 ml of medium under sterile conditions and incubated at 37° C. for 30 minutes to allow the release of embryonic stages (eggs and microfilariae) into the medium. The embryonic stages were harvested into sterile 15 ml. centrifuge tubes and washed three times by centrifuging at 300 g for 10 minutes each with medium and the final pellet was suspended in 1 ml. of RPMI-1640 medium (Sigma R 8005) supplemented with 10% FBS (Sigma F 2442)
The number of embryonic stages of S. digitata in the above preparation were counted using light microscope, and the suspension was taken in RPMI-1640 medium containing 10% FBS at 1×10^5 embryonic stages/ml. One ml. each was dispensed into individual wells of a 24 well tissue culture plate. One set of wells was taken as untreated control containing only medium with 10% FBS. […] Motility of the Mf was scored under an inverted microscope.
After appropriate treatment and incubation, each set of the cultured embryonic stages of S. digitata were harvested from the 24 well tissue culture plate separately in 15 ml. sterile centrifuge tubes, washed with PBS twice and stained as per requirement following manufacturer's instructions as described below. This was followed by two times washing with PBS and final suspension of the stained embryonic stages was taken in 0.5 ml of sheath fluid (BD Biosciences 342003) before their acquisition in the flow cytometer (BD FACS Calibur, Becten and Dickinson, USA). Analysis was performed on 10,000-acquired events depicted as Dot Plots and Histogram Plots using Cellquest Pro soft ware. All plots were representative of at least 3 experiments. The distinctly clustered populations obtained consistently in the Dot plots for the intra uterine embryonic stages of S. digitata (FIG. 1 a) were gated for Mfs (R-1) and eggs (R-2 and R-3) and analyzed for different assays for apoptosis as described below.
The mitochondrial membrane potential (ΔΨm) was measured using JC-1 probe (a cataionic lipophilic fluorochrome that accumulates in mitochondria in proportion to mitochondrial membrane potential) supplied in mitoscreen JC-1 kit (BD Biosciences 551302). Briefly a suspension of in-vitro cultured embryonic stages at 1×10^5 embryonic stages/ml. was mixed with 0.5 ml of freshly prepared JC-1 working solution for 10-15 minutes at 37° C. in a CO2 incubator followed by two times washing and final suspension of the embryonic stages in 1× assay buffer (supplied with the kit) before acquisition and analysis by flow cytometry. Reduction of fluorescence intensity of the mitoscreen JC-1 stained embryonic stages was taken as the degree of depolarization of mitochondria.

SMILES	GMI (Geometric Mean Intensity) of Fluorescence, CED-3 Expression ([1]; Eggs, 10 μM)	GMI (Geometric Mean Intensity) of Fluorescence, CED-3 Expression ([1]; Microfilariae, 10 μM)	GMI (Geometric Mean Intensity) of Fluorescence, Mitoscreen-jc-1 staining (Mitochondrial Depolarisation assay) ([2]; Eggs, 10 μM)	induction of mitochondrial depolarization (result in words) [2]	GMI (Geometric Mean Intensity) of Fluorescence, Mitoscreen-jc-1 staining (Mitochondrial Depolarisation assay) ([2]; Microfilariae, 10 μM)	GMI (Geometric Mean Intensity) of Fluorescence, CED-3 Expression ([1]; Eggs, 1 μM)	GMI (Geometric Mean Intensity) of Fluorescence, CED-3 Expression ([1]; Microfilariae, 1 μM)	GMI (Geometric Mean Intensity) of Fluorescence, Mitoscreen-jc-1 staining (Mitochondrial Depolarisation assay) ([2]; Eggs, 1 μM)	GMI (Geometric Mean Intensity) of Fluorescence, Mitoscreen-jc-1 staining (Mitochondrial Depolarisation assay) ([2]; Microfilariae, 1 μM)
OO [H2O2]	98.25 and 100.22 and 97.56	10.99 and 12.38 and 9.95	1225.16 and 1165.12 and 1295.39	dose dependent induction of mitochondrial depolarization was observed	785.33 and 823.57 and 750.62	–	–	–	–
CC1=CC(=O)c2c(O)cccc2C1=O [Plumbagin]	205.26 and 207.37 and 200.17	32.75 and 34.96 and 31.33	970.16 and 1078.76 and 897.56	dose dependent induction of mitochondrial depolarization was observed	435.26 and 476.20 and 398.76	–	–	–	–
CN[C@@H]1C[C@H]2O[C@@](C)([C@@H]1OC)n1c3ccccc3c3c4c(c5c6ccccc6n2c5c31)C(=O)NC4 [Staurosporine]	–	–	–	–	–	92.71 and 96.07 and 90.32	8.33 and 8.10 and 7.39	1549.35 and 1500.65 and 1510.50	895.30 and 979.20 and 930.16
